Holding throughout (assay type): cell-based
Details in all cases: read-out: % inhibition at 100 nM

Data set [1] concerns the target T1, hERG potassium channel (Homo sapiens, UniProt Q12809).
T1 construct: gene KCNH2
Kind of data set: whole-cell patch clamp, HEK-293 cells, […] inhibition at […] (RT), […] (PT). A general note: In patch-clamp work, channel activity is measured electrically.

Data set [2] has as its target T2, hERG potassium channel (Homo sapiens, UniProt Q12809, S624A).
T2 construct: gene KCNH2
Kind of data set: whole-cell patch clamp, transfected HEK-293 cells, […], RT.

In data set [3] the target is T3, hERG potassium channel (Homo sapiens, UniProt Q12809, Y652A).
T3 construct: gene KCNH2
T3 sequence (Q12809 whole entry Y652A): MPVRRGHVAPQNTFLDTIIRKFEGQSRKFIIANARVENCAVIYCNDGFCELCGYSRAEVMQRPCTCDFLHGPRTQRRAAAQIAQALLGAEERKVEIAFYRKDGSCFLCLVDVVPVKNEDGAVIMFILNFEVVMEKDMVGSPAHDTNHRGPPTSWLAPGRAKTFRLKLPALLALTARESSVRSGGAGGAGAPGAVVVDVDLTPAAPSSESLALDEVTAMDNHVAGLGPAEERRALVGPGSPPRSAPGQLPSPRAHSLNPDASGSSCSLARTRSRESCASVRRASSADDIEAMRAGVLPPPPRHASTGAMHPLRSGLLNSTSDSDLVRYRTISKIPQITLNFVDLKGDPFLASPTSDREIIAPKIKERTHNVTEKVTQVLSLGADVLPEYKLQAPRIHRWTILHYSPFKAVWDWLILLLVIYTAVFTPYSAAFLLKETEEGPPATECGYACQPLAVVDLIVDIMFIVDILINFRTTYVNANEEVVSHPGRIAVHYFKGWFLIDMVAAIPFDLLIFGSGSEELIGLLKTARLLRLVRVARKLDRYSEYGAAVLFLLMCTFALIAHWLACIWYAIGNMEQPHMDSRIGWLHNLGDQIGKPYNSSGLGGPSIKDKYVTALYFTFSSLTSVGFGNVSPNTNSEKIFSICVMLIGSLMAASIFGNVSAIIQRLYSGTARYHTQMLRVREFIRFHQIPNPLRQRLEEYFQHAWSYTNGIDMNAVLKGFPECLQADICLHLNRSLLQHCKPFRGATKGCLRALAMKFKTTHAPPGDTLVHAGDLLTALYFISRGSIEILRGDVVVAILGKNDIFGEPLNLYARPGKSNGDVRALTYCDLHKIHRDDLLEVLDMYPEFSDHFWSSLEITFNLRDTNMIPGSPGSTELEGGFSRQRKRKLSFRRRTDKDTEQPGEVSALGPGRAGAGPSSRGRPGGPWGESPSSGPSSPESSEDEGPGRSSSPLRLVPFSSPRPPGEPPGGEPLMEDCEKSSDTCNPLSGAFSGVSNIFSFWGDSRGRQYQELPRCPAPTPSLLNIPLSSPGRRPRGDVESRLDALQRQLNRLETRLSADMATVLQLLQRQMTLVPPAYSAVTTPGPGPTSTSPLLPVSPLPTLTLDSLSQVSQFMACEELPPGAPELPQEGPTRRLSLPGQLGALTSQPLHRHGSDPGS
The description is as above.

Among the data in paper PMC10343501 (Molecules, 2023) are inhibition values, retold here.

T2 sequence (Q12809 whole entry S624A): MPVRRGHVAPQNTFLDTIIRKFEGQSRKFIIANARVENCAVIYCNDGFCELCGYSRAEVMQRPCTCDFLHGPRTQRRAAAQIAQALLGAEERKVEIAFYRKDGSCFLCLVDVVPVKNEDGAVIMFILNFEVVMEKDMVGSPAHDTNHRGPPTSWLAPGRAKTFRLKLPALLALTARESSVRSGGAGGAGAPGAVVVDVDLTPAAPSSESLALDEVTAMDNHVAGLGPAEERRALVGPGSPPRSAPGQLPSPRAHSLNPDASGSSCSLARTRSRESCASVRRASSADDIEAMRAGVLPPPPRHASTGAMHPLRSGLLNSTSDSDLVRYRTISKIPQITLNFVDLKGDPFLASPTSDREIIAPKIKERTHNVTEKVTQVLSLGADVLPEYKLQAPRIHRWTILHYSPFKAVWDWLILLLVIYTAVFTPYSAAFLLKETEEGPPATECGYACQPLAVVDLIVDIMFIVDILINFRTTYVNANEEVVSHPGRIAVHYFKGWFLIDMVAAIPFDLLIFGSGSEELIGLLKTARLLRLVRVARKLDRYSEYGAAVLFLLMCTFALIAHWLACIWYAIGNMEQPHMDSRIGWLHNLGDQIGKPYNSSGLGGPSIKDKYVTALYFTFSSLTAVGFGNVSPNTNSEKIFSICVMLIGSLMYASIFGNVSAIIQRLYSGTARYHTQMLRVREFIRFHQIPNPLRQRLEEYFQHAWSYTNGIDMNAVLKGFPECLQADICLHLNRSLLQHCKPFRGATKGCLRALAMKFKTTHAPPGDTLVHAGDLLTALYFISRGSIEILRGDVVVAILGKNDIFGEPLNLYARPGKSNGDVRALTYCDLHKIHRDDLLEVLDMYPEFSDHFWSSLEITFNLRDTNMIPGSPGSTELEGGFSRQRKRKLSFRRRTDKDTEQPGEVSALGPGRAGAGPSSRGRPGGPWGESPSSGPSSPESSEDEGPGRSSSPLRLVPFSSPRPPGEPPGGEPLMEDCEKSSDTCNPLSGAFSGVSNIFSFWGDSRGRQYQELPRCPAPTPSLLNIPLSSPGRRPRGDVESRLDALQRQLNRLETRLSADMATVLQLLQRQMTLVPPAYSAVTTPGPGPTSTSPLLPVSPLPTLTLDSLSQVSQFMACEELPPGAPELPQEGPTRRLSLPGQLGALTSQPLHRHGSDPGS
T1 sequence (Q12809 whole entry): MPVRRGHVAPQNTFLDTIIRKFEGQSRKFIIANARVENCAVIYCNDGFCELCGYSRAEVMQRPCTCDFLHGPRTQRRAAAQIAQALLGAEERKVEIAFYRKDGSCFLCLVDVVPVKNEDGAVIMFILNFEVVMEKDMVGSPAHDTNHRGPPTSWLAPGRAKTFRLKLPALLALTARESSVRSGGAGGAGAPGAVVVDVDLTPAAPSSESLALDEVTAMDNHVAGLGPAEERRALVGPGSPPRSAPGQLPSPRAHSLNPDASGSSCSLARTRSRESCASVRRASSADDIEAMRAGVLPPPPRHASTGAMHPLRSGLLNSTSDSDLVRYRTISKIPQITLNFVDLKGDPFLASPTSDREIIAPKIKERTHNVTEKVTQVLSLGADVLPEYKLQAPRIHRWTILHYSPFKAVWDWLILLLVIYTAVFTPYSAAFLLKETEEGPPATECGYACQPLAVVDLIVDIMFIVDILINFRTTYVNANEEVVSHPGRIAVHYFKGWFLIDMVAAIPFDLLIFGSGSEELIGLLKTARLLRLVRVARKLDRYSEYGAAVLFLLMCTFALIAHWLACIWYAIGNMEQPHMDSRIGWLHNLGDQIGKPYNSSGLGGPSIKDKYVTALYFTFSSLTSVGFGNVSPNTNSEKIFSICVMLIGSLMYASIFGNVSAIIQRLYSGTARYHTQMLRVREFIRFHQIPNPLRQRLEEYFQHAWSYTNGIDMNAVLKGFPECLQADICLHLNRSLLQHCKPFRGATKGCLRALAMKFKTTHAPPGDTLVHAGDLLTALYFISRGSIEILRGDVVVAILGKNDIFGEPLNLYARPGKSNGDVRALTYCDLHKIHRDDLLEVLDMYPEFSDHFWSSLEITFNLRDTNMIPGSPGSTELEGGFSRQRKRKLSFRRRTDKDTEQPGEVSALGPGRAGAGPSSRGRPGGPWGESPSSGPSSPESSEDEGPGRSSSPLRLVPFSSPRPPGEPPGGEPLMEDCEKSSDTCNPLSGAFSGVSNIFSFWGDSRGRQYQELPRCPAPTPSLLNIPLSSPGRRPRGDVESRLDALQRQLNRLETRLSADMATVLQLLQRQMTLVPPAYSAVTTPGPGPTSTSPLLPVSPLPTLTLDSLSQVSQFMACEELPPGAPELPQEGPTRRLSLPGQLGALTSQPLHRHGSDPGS

By inhibition is commonly meant how much of the control response was suppressed. Turning to `COc1cc(N)c(Cl)cc1C(=O)NC1CCN(CCCOc2ccc(F)cc2)CC1OC` (stereo not drawn) [cisapride], the figures for the inhibition at 0.1 µM on hERG potassium channel [1], at hERG potassium channel [2] and on hERG potassium channel [3] were 75.9%, 44% and 33.9%, respectively.
